Source: patent US10100055B2, “Imidazopyrroloquinoline salt, method for producing the same, medicament, cosmetic, and food” (Mitsubishi Gas Chemical Company, Inc., priority 2016, dated 2018)

What was measured:
[1] = system: Human uterine cancer cells (HeLa cells); experiment: Cell activity test (cell counting kit 8); type: cell-based; parameters: number of the human uterine cancer cells (number without sample taken to be 100): dose or concentration left out as unconfirmed
Method: Human uterine cancer cells (HeLa cells) were cultured in an incubator at a 5%-CO2 concentration and at 37° C. Thereafter, the human uterine cancer cells were inoculated to 96 wells so as to become 1000 cells/well, and cultured for one night. Then, a suspension in which the sample of Example 1 was suspended in a phosphate buffer so as to become 1 g/L was used and added so as to become […]. After 2 days, by using a “cell counting kit 8” (trade name, manufactured by Dojindo Laboratories), the number of the human uterine cancer cells was measured. When the number of the human uterine cancer cells 2 days after the culture for one night when the sample of Example 1 was not added was taken to be 100, the number of the cells when the sample of Example 1 in […] was used was 112.

[2] = Solubility in water or ethanol, by absorbance at 260 nm; type: physicochemical; conditions: thermodynamic from solid
Method: The resultants were allowed to stand at the following temperatures (23° C. or 50° C.) for 1 hour, and thereafter centrifuged, and filtered with a filter of 0.5 μm; […] at an absorption wavelength of 260 nm.

solubility at 1 h ([2]; organic solvent or mixture, ethanol, 23° C.): 0.4 mg/mL | solubility at 1 h ([2]; water, 23° C.): 37 mg/mL | solubility at 1 h ([2]; water, 50° C.): 47 mg/mL
Structure (SMILES): N=C(N)NCCCc1nc2c(=O)c3cc(C(=O)O)[nH]c3c3c(C(=O)O)cc(C(=O)O)n1c23 [Example 1, argIPQ disodium trihydrate]
effect on cell proliferation (in words) [1]: functioned to advance the cell proliferation | number of the human uterine cancer cells (number without sample taken to be 100) ([1]; after 2 days, control = 100): 112
